Laboratory results from ChEMBL document CHEMBL1201862, “PubChem BioAssay data set” (2004).
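Where inhibition never reached the appropriate level, the endpoint shown equals the highest concentration tested. Otherwise, values were interpolated linearly from a five-concentration, 48-hour dose response in 96-well plates. GI50 marks 50% less growth.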 Activity calls are given as the source filed them. No stated cut-off is given here; in the data, active = GI50 up to about 1.1 µM and inactive = higher.

What was measured:
Assay in all cases: inhibition of tumour cell growth, NCI panel, 48 h
NCI-H522 = test system: NCI-H522
HCT-116 = test system: HCT-116
LOX IMVI = test system: LOX IMVI
OVCAR-4 = test system: OVCAR-4
HT-29 = test system: HT-29
IGROV-1 = test system: IGROV-1
U-251 = test system: U-251
HCC 2998 = test system: HCC 2998
A498 = test system: A498
DU-145 = test system: DU-145
SF-539 = test system: SF-539
OVCAR-3 = test system: OVCAR-3
ACHN = test system: ACHN
UACC-257 = test system: UACC-257
EKVX = test system: EKVX
NCI-H226 = test system: NCI-H226
SR = test system: SR
PC-3 = test system: PC-3
786-0 = test system: 786-0
OVCAR-8 = test system: OVCAR-8

Row | SMILES | GI50 (NCI-H522) | GI50 (HCT-116) | GI50 (LOX IMVI) | GI50 (OVCAR-4) | GI50 (HT-29) | GI50 (IGROV-1) | GI50 (U-251) | GI50 (HCC 2998) | GI50 (A498) | GI50 (DU-145) | GI50 (SF-539) | GI50 (OVCAR-3) | GI50 (ACHN) | GI50 (UACC-257) | GI50 (EKVX) | GI50 (NCI-H226) | GI50 (SR) | GI50 (PC-3) | GI50 (786-0) | GI50 (OVCAR-8)
1 | COc1ccc(Cl)cc1NC(=O)c1cccc([N+](=O)[O-])c1O | 6.49 µM (inactive) | 16.6 µM (inactive) | 13.7 µM (inactive) | 10.2 µM (inactive) | 19.8 µM (inactive) | 8.34 µM (inactive) | 11.9 µM (inactive) | 14 µM (inactive) | 5.7 µM (inactive) | 23.7 µM (inactive) | 16.1 µM (inactive) | 5.19 µM (inactive) | 12.4 µM (inactive) | 15.2 µM (inactive) | 9.82 µM (inactive) | 15 µM (inactive) | 17.5 µM (inactive) | 9.14 µM (inactive) | 16.8 µM (inactive) | 17.8 µM (inactive)
2 | CC(C)(C)C1CC[C@H](O)[C@H]([C@@H](O)CC2CC(=O)N(c3ccccc3)C(=O)C2)C1 (stereo not given in full) | > 100 µM (inactive) | 60.5 µM (inactive) | 49.3 µM (inactive) | 57.5 µM (inactive) | 23.1 µM (inactive) | > 100 µM (inactive) | 55.8 µM (inactive) | 27.9 µM (inactive) | > 100 µM (inactive) | 55.3 µM (inactive) | > 100 µM (inactive) | 50.9 µM (inactive) | 69 µM (inactive) | 89.9 µM (inactive) | 70 µM (inactive) | > 100 µM (inactive) | 40.9 µM (inactive) | 91.8 µM (inactive) | > 100 µM (inactive) | 50.7 µM (inactive)
3 | N=C(N)SC(c1ccccc1)c1ccccc1 | 13.2 µM (inactive) | 12.2 µM (inactive) | 15.2 µM (inactive) | 18.3 µM (inactive) | 13.3 µM (inactive) | 18.5 µM (inactive) | 15.3 µM (inactive) | 6.18 µM (inactive) | 17.3 µM (inactive) | 12.2 µM (inactive) | 20.8 µM (inactive) | 14.2 µM (inactive) | 14.9 µM (inactive) | 14.2 µM (inactive) | 15 µM (inactive) | 33.8 µM (inactive) | 24 µM (inactive) | 14.3 µM (inactive) | 12.6 µM (inactive) | 15.3 µM (inactive)
4 | CC1=NOC2(C1)C(=O)Nc1ccccc12 (stereo not given) | > 100 µM (inactive) | > 100 µM (inactive) | > 100 µM (inactive) | > 100 µM (inactive) | > 100 µM (inactive) | > 100 µM (inactive) | > 100 µM (inactive) | > 100 µM (inactive) | 34.3 µM (inactive) | > 100 µM (inactive) | > 100 µM (inactive) | > 100 µM (inactive) | > 100 µM (inactive) | > 100 µM (inactive) | > 100 µM (inactive) | 50.8 µM (inactive) | > 100 µM (inactive) | > 100 µM (inactive) | > 100 µM (inactive) | > 100 µM (inactive)
5 | CN(CCCN1CCCC1)CCCN(C)C(=O)Cc1ccc(Cl)c(Cl)c1 | 15.7 µM (inactive) | 13.6 µM (inactive) | 12.7 µM (inactive) | 29.6 µM (inactive) | 3.77 µM (inactive) | 23.9 µM (inactive) | 14.9 µM (inactive) | 5.68 µM (inactive) | 14.5 µM (inactive) | 43.9 µM (inactive) | 16.7 µM (inactive) | 27 µM (inactive) | 27.6 µM (inactive) | 2.55 µM (inactive) | 24.1 µM (inactive) | 26.2 µM (inactive) | 11.9 µM (inactive) | 22.1 µM (inactive) | 13.4 µM (inactive) | 30 µM (inactive)
6 | COc1ccc(/C=C\c2cc(OC)c(OC)c(OC)c2)cc1OC(=O)CC(N)C(=O)O (stereo not given) | 0.00132 µM (active) | 0.00103 µM (active) | 0.00254 µM (active) | 0.189 µM (active) | 0.865 µM (active) | 0.0124 µM (active) | 0.00262 µM (active) | 0.106 µM (active) | 0.00269 µM (active) | 0.00293 µM (active) | 0.00222 µM (active) | 0.00224 µM (active) | 0.00437 µM (active) | 0.00171 µM (active) | 34.8 µM (inactive) | 0.054 µM (active) | 0.00577 µM (active) | 0.000776 µM (active) | 0.0111 µM (active) | 0.00301 µM (active)
7 | O=c1c2cccnc2[nH]c2ccc3scnc3c12 | > 10 µM (inactive) | 3.3 µM (inactive) | 3.36 µM (inactive) | 9.35 µM (inactive) | 4.72 µM (inactive) | 4.81 µM (inactive) | > 10 µM (inactive) | > 10 µM (inactive) | 7.62 µM (inactive) | > 10 µM (inactive) | 6.95 µM (inactive) | 4.28 µM (inactive) | 1.87 µM (inactive) | > 10 µM (inactive) | > 10 µM (inactive) | 5.97 µM (inactive) | 4.32 µM (inactive) | > 10 µM (inactive) | 5.58 µM (inactive) | > 10 µM (inactive)
8 | COC(=O)/C(=C/c1ccc(OC)cc1)c1cc(OC)c(OC)c(OC)c1 | 0.614 µM (active) | 2.16 µM (inactive) | 4.42 µM (inactive) | 7.43 µM (inactive) | 0.524 µM (active) | 2.48 µM (inactive) | 2 µM (inactive) | 10.7 µM (inactive) | 7.05 µM (inactive) | 1.69 µM (inactive) | 1.55 µM (inactive) | 0.527 µM (active) | 9.93 µM (inactive) | 7.83 µM (inactive) | 8.69 µM (inactive) | 6.55 µM (inactive) | 0.379 µM (active) | 0.693 µM (active) | 4.12 µM (inactive) | 4.28 µM (inactive)
